We go through one compound from patent US20030083202A1, “Roots-inducing agent of plants and its treatment method” (priority 2001, published 2003).

In test [1] the test system is cuttings of violets without roots. Description: Roots-inducing and fixation-stimulating actions in cuttings of violets (leaf spray). In kind it is in vivo. As for the experimental part:
Seedlings of violets were used in the experiment. The lower part of the seedlings of violets was cut and cuttings of violets without roots were prepared. Each cutting of violets was planted into cultivation soil in a plug tray and supplied water sufficiently.
The plug trays were lined up on the working stand in a green house where the temperature was controlled at 25-33 (C. The water solution of 4-chloroindole-3-acetic acid (20 ppm) was sprayed in a misty manner through an atomizer onto the surface of leaves so that the surface got wet uniformly (once).
Then, the plants were grew for 38 days with 1-2 times water supply every other day, and numbers of the cuttings with and without roots-induction and of the dead cuttings. In the control, the cuttings were sprayed only water instead of 4-chloroindole-3-acetic acid solution and grew under the same conditions as those described above.

In test [2] the test system is cut stems of chrysanthemums. Kind of test: Roots-inducing and fixation-stimulating actions in cut stems of chrysanthemums (leaf spray). Type of test: in vivo. On the set-up: Index for roots-induction, Total indexes: scale not given here. The note with it: 50th day. From the text: Stems of chrysanthemums were cut out by 5 cm from the part at 5-10 cm from the top to prepare cuttings with 2 leaves. The water solution of the tested compound (5 ppm) was sprayed once in a misty manner through an mascot spray onto the surface of leaves so that the surface got wet uniformly for each 8 cuttings. The cuttings in the pots were grew in a cabinet where the temperature was controlled in the range of 15 (C at lowest at night to 30 (C at highest in the daytime. Water was supplied appropriately according to the extent of dryness of soil during the cultivation of plants.
On the 50th day after the tested compound was sprayed, roots-induction of each cutting was checked by diggings up, and its extent was shown as an index for each rank.

[3] abbreviates: 20 ppm water solution sprayed once onto leaves, after 38 days, of 93 cuttings.
[4] abbreviates: 5 ppm water solution sprayed once onto leaves, 8 cuttings.

Turning to `O=C(O)Cc1c[nH]c2cccc(Cl)c12` [4-Cl-IAA, 4-chloroindole-3-acetic acid], in test [1] (20 ppm spray, versus water control), the “Roots-inducing and fixation-stimulating actions (in words)” value is given as “extremely prominent”. Further, in test [1] (20 ppm spray, roots checked by digging up at random, no statistical analysis, control only after 7 days), the “Time at which roots-induction was observed” value was “around 3 days”. Moreover, in test [1] (setting [3]), the “Cuttings with roots-induction (number of cuttings)” value is given as 74, the “Cuttings without roots-induction (%)” value is given as “(6) %”, the “Cuttings without roots-induction (number of cuttings)” value worked out at 6 and the “Dead cuttings (%)” value is reported as “(14) %”. Also, in test [1] (setting [3]), the “Dead cuttings (number of cuttings)” value was determined as 13. Besides, the “Cuttings with roots-induction (%)” value in test [1] (20 ppm water solution sprayed once onto leaves, after 38 days, of 93 cuttings, listed as 4-Cl-iAA) is “(80) %”. Besides, the “Cuttings with roots-induction (%)” value in test [1] (20 ppm water solution sprayed once onto leaves, after 38 days, of 93 cuttings, listed as 4-chloroindole-3-acetic acid) turned out to be 80%. For the same compound, in test [2] (setting [4]), the “Index for roots-induction, cutting 1” value is given as 3 (The cuttings with 20 or more roots per a cutting); the “Index for roots-induction, cutting 2” value is listed as 2 (The cuttings with 10-19 roots per a cutting); the “Index for roots-induction, cutting 3” value is recorded as 2 (The cuttings with 10-19 roots per a cutting); the “Index for roots-induction, cutting 4” value is given as 2 (The cuttings with 10-19 roots per a cutting). Also, in test [2] (setting [4]), the “Index for roots-induction, cutting 5” value is 2 (The cuttings with 10-19 roots per a cutting); the “Index for roots-induction, cutting 6” value is 2 (The cuttings with 10-19 roots per a cutting); the “Index for roots-induction, cutting 7” value is recorded as 0 (The cuttings with less than 4 roots (including no roots)); the “Index for roots-induction, cutting 8” value was 0 (The cuttings with less than 4 roots (including no roots)). Further, the “Index for roots-induction, Total indexes” value in test [2] (sum of the indexes of 8 cuttings, 5 ppm spray, non-treatment 7) came out at 13.
